This assay concerns the target T1, DGAT1 enzyme (Homo sapiens, UniProt O75907).
T1 construct: made in house
T1 sequence (O75907 1-488): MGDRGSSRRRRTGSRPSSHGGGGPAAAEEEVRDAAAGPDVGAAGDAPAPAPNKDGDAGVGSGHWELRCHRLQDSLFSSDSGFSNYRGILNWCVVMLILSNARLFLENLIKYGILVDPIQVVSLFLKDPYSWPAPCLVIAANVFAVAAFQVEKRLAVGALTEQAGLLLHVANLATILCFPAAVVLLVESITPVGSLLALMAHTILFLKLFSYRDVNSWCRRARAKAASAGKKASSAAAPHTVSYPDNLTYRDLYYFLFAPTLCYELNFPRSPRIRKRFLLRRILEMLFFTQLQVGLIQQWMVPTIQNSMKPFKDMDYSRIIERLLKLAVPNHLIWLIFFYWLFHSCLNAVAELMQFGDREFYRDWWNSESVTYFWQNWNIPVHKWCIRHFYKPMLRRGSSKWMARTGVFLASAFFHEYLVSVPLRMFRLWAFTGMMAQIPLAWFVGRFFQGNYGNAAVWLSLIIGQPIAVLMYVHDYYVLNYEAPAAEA
Nature of the assay: DGAT1 inhibitory activity test. It counts as biochemical. The settings on record: test compound concentration of 0.05 μg/ml; read-out: Inhibitory Rate. As to the method:
DGAT1 enzyme was prepared and stored according to the method described in US2007/0249620.
(2) DGAT1 Inhibitory Activity Test
A reaction solution having the following composition was incubated at room temperature (23° C.) for 30 minutes: 175 mM Tris-HCl (pH 8.0), 8 mM MgCl2, 1 mg/ml BSA, 0.3 mM 1,2-dioleoyl-sn-glycerol (10-fold concentration of EtOH solution, 10% added), 10 μM [^14C]-oleoyl-CoA (approximately 50 mCi/mmol), 0.5% Triton X-100, the DGAT1 enzyme (10 μg) obtained in Test Example 1(1), and a test compound or vehicle (DMSO/MeOH, 7:3 solution, 5% added), […] in total. A reaction stop solution ([…] consisting of isopropanol/1-heptane/water (80:20:2, v/v/v) was added to the reaction solution and stirred. Subsequently, water (30 μl) and 1-heptane (100 μl) were added thereto and stirred. The 1-heptane layer (50 μl) was spotted onto a TLC plate and developed with a developing solvent consisting of 1-hexane/diethyl ether/acetic acid (85:15:1, v/v/v). The radioactivity of the triglyceride fraction was quantified using BAS2000 Bio Image Analyzer (FUJIFILM) and compared with the control. The inhibitory activity of the test compound was calculated according to the formula shown below. In this context, the radioactivity at no reaction (0 minute incubation) was used as background. Inhibitory Rate=100−[(Radioactivity of sample supplemented with test compound)−(Background)]/[(Radioactivity of control)−(Background)]×100

`O=C(O)C[C@@H]1CC[C@H](OC(=O)N2CCc3cc(NC(=O)Nc4ccccc4F)ccc3C2)C1` (relative stereo) [Example 6, cis-6-[3-(2-fluoro-phenyl)-ureido]-3,4-dihydro-1H-isoquinoline-2-carboxylic acid 3-carboxymethyl-cyclopentyl ester]: the inhibition at 0.05 µg/mL was at least 50%. For `C[C@H]1C[C@@H](CC(=O)O)CC[C@H]1OC(=O)N1CCc2cc(NC(=O)Nc3ccccc3F)ccc2C1` (relative stereo) [Example 14, 6-[3-(2-fluoro-phenyl)-ureido]-3,4-dihydro-1H-isoquinoline-2-carboxylic acid c-4-carboxymethyl-c-2-methyl-r-1-cyclohexyl ester] the value was at least 50%; for `O=C(O)C[C@H]1CC[C@@H](OC(=O)N2CCc3cc(NC(=O)Nc4ccccc4F)ccc3C2)CC1` [Example 3, cis-6-[3-(2-fluoro-phenyl)-ureido]-3,4-dihydro-1H-isoquinoline-2-carboxylic acid 4-carboxymethyl-cyclohexyl ester], at least 50%; for `O=C(Nc1ccc2c(c1)CCN(C(=O)O[C@H]1CC[C@@H](C(=O)O)CC1)C2)Nc1ccccc1F` [Example 9, cis-6-[3-(2-fluoro-phenyl)-ureido]-3,4-dihydro-1H-isoquinoline-2-carboxylic acid 4-carboxy-cyclohexyl ester], at least 50%. `NC(=O)C[C@H]1CC[C@H](OC(=O)N2CCc3cc(NC(=O)Nc4ccccc4F)ccc3C2)CC1` [Example 18, trans-6-[3-(2-fluoro-phenyl)-ureido]-3,4-dihydro-1H-isoquinoline-2-carboxylic acid 4-carbamoylmethyl-cyclohexyl ester]: the inhibition at 0.05 µg/mL is at least 50%. As for `CC(C)(NC(=O)C[C@H]1CC[C@H](OC(=O)N2CCc3cc(NC(=O)Nc4ccccc4F)ccc3C2)CC1)C(=O)O` [Example 19, trans-6-[3-(2-fluoro-phenyl)-ureido]-3,4-dihydro-1H-isoquinoline-2-carboxylic acid 4-[(1-carboxy-1-methyl-1-ethylcarbamoyl)-methyl]-cyclohexyl ester], the inhibition at 0.05 µg/mL is at least 50%.

In the case of `CN(C)C(=O)C[C@H]1CC[C@H](OC(=O)N2CCc3cc(NC(=O)Nc4ccccc4F)ccc3C2)CC1` [Example 33, trans-6-[3-(2-fluoro-phenyl)-ureido]-3,4-dihydro-1H-isoquinoline-2-carboxylic acid 4-dimethylcarbamoylmethyl-cyclohexyl ester], the inhibition at 0.05 µg/mL was at least 50%. For `CNC(=O)C[C@H]1CC[C@H](OC(=O)N2CCc3cc(NC(=O)Nc4ccccc4F)ccc3C2)CC1` [Example 34, trans-6-[3-(2-fluoro-phenyl)-ureido]-3,4-dihydro-1H-isoquinoline-2-carboxylic acid 4-methylcarbamoylmethyl-cyclohexyl ester] the value was at least 50%; for `O=C(O)CNC(=O)C[C@H]1CC[C@H](OC(=O)N2CCc3cc(NC(=O)Nc4ccccc4F)ccc3C2)CC1` [Example 35, trans-6-[3-(2-fluoro-phenyl)-ureido]-3,4-dihydro-1H-isoquinoline-2-carboxylic acid 4-[(carboxymethyl-carbamoyl)-methyl]-cyclohexyl ester], at least 50%.

Consider `CC(NC(=O)C[C@H]1CC[C@H](OC(=O)N2CCc3cc(NC(=O)Nc4ccccc4F)ccc3C2)CC1)C(=O)O` (stereo partly drawn) [Example 36, trans-6-[3-(2-fluoro-phenyl)-ureido]-3,4-dihydro-1H-isoquinoline-2-carboxylic acid 4-[(1-carboxy-ethylcarbamoyl)-methyl]-cyclohexyl ester], for which the inhibition at 0.05 µg/mL was at least 50%. For `O=C(C[C@H]1CC[C@H](OC(=O)N2CCc3cc(NC(=O)Nc4ccccc4F)ccc3C2)CC1)NC1(C(=O)O)CC1` [Example 37, trans-6-[3-(2-fluoro-phenyl)-ureido]-3,4-dihydro-1H-isoquinoline-2-carboxylic acid 4-[(1-carboxy-cyclopropylcarbamoyl)-methyl]-cyclohexyl ester] the value was at least 50%; for `O=C(Nc1ccc2c(c1)CCN(C(=O)O[C@H]1CC[C@H](CC(=O)N3CCCC3C(=O)O)CC1)C2)Nc1ccccc1F` (stereo partly drawn) [Example 38, trans-6-[3-(2-fluoro-phenyl)-ureido]-3,4-dihydro-1H-isoquinoline-2-carboxylic acid 4-[2-(2-carboxy-pyrrolidin-1-yl)-2-oxo-ethyl]-cyclohexyl ester], at least 50%. The figure for `O=C(Nc1ccc2c(c1)CCN(C(=O)O[C@H]1CC[C@H](Cc3nc(C(=O)O)co3)CC1)C2)Nc1ccccc1F` [Example 39, trans-6-[3-(2-fluoro-phenyl)-ureido]-3,4-dihydro-1H-isoquinoline-2-carboxylic acid 4-(4-carboxy-oxazol-2-ylmethyl)-cyclohexyl ester] is at least 50%; for `O=C(C[C@H]1CC[C@H](OC(=O)N2CCc3cc(NC(=O)Nc4ccccc4F)ccc3C2)CC1)Nc1nnn[nH]1` [Example 40, trans-6-[3-(2-fluoro-phenyl)-ureido]-3,4-dihydro-1H-isoquinoline-2-carboxylic acid 4-[(1H-tetrazol-5-ylcarbamoyl)-methyl]-cyclohexyl ester] it is at least 50%; for `O=C(Nc1ccc2c(c1)CCN(C(=O)O[C@H]1CC[C@H](Cc3cc(O)n[nH]3)CC1)C2)Nc1ccccc1F` [Example 42, trans-6-[3-(2-fluoro-phenyl)-ureido]-3,4-dihydro-1H-isoquinoline-2-carboxylic acid 4-(5-hydroxy-2H-pyrazol-3-ylmethyl)-cyclohexyl ester] it is at least 50%. For `C[S+]([O-])c1cccc(NC(=O)Nc2ccc3c(c2)CCN(C(=O)O[C@H]2CC[C@H](CC(=O)O)CC2)C3)c1` (stereo partly drawn) [Example 65, trans-6-[3-(3-methanesulfinyl-phenyl)-ureido]-3,4-dihydro-1H-isoquinoline-2-carboxylic acid 4-carboxymethyl-cyclohexyl ester] the value was at least 50%; for `COc1ccc(NC(=O)Nc2ccc3c(c2)CCN(C(=O)O[C@H]2CC[C@H](CC(=O)O)CC2)C3)cc1` [Example 79, trans-6-[3-(4-methoxy-phenyl)-ureido]-3,4-dihydro-1H-isoquinoline-2-carboxylic acid 4-carboxymethyl-cyclohexyl ester], at least 50%. On to `O=C(O)C[C@H]1CC[C@H](OC(=O)N2CCc3cc(NC(=O)Nc4cncc(Cl)c4)ccc3C2)CC1` [Example 93, trans-6-[3-(5-chloro-pyridin-3-yl)-ureido]-3,4-dihydro-1H-isoquinoline-2-carboxylic acid 4-carboxymethyl-cyclohexyl ester], for which the inhibition at 0.05 µg/mL was at least 50%. For `O=C(O)C[C@H]1CC[C@H](OC(=O)N2CCc3cc(NC(=O)Nc4cnccn4)ccc3C2)CC1` [Example 94, trans-6-(3-pyrazin-2-yl-ureido)-3,4-dihydro-1H-isoquinoline-2-carboxylic acid 4-carboxymethyl-cyclohexyl ester] the value was at least 50%; for `O=C(O)C[C@H]1CC[C@H](OC(=O)N2CCc3cc(Nc4nc5ccccc5s4)ccc3C2)CC1` [Example 98, trans-6-(benzothiazol-2-ylamino)-3,4-dihydro-1H-isoquinoline-2-carboxylic acid 4-carboxymethyl-cyclohexyl ester], at least 50%; for `COc1cccc(NC(=O)Nc2ccc3c(c2)CCN(C(=O)C(C)C2CCC(CC(=O)O)CC2)C3)c1` (stereo not drawn) [Example 106, [4-(2-{6-[3-(3-methoxy-phenyl)-ureido]-3,4-dihydro-1H-isoquinolin-2-yl}-1-methyl-2-oxy-ethyl)-cyclohexyl]-acetic acid], at least 50%.

Source of the values: US8735425B2, “Tetrahydroisoquinoline derivative” (Daiichi Sankyo Company, Limited, priority 2008, dated 2014).
